Counter-ions that a name gives are not always drawn.
Settings: water; printed as 'approximately up to about'

## Cc1cc2c(s1)Nc1ccccc1N=C2N1CCN(C)CC1 [oxalic acid addition salt of olanzapine]
  aqueous solubility: up to 800 mg/mL
